Measurements taken from BindingDB's records for doi:10.1021/jm990235p (Va Medical Center, 1999).

Molecular target: aldehyde dehydrogenase (Saccharomyces cerevisiae)
Assay: In vitro inhibitory activity against yeast Aldehyde dehydrogenase

SMILES: CCOC(=O)N(OC(=O)N(CC)CC)S(=O)(=O)c1ccccc1 [ethyl [(diethylamino)carbonyl]oxy(phenylsulfonyl)carbamate]
- IC50: 169 µM
